A word on the Ki: it is a dissociation constant, usually derived from enzyme kinetics or from competition with a known ligand. Low readings indicate tighter binding, high ones weaker binding.

Test [1] has as its target Sodium-dependent serotonin transporter (Rattus norvegicus, UniProt P31652).
For test [2], the target named is Sodium-dependent dopamine transporter (Rattus norvegicus, UniProt P23977).
The target of test [3] is Norepinephrine transporter (Rattus norvegicus, UniProt Q9JIA2).

Sodium-dependent serotonin transporter, sequence (P31652 whole entry): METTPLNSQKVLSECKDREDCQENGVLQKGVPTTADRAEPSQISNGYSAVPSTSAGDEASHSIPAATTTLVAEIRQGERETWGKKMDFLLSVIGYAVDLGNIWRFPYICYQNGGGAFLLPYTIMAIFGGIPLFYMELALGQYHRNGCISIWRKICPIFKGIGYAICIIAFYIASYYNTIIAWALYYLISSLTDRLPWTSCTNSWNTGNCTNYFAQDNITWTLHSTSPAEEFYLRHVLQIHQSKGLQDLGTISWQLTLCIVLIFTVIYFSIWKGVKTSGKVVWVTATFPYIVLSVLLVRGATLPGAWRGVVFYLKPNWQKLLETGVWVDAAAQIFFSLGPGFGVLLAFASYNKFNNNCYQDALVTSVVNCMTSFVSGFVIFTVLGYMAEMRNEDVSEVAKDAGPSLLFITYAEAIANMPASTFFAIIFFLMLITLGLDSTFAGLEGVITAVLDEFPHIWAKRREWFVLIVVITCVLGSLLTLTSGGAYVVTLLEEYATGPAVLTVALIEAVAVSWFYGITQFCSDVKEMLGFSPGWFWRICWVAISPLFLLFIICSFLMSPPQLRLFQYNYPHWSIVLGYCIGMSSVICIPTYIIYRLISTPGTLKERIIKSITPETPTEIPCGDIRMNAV
Sodium-dependent dopamine transporter, sequence (P23977 whole entry): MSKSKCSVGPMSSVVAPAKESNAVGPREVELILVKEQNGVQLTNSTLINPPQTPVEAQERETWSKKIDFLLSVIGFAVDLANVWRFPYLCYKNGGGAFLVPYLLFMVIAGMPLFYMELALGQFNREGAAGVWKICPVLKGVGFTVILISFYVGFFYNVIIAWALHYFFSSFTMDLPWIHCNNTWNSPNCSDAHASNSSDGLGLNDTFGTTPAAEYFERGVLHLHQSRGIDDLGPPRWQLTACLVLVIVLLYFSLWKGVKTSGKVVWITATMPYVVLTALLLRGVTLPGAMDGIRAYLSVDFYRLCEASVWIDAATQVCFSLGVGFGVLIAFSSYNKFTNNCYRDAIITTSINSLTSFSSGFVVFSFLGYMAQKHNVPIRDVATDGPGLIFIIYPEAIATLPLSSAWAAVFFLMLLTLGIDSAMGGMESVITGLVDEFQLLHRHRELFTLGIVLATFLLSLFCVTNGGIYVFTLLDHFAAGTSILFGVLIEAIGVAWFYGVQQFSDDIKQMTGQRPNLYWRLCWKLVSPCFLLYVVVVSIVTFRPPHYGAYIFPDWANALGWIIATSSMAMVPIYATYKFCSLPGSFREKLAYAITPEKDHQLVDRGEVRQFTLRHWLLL

Regarding `CC(C)OC(=O)[C@@H]1C2CC[C@H](C[C@@H]1c1ccc(I)cc1)N2C`, the Ki in test [1] worked out at 0.0668 µM; in test [2] it was 0.0004 µM; in test [3], 0.285 µM.

On to `CC(C)OC(=O)[C@@H]1C2CC[C@H](C[C@@H]1c1ccc(Cl)cc1)N2C`, for which the Ki in test [1] worked out at 1.4 µM; in test [2], 0.0014 µM; in test [3], 0.778 µM.

Consider `COC(=O)[C@H]1[C@@H](c2ccc(Cl)c(C)c2)C[C@@H]2CC[C@H]1N2C`, for which the figures for the Ki in test [1], in test [2] and in test [3] were 0.0105 µM, 0.0008 µM and 0.0362 µM, respectively.

Turning to `COC(=O)[C@@H]1C2CCC(C[C@@H]1c1ccc(Cl)c(Cl)c1)N2C` (stereo partly drawn) [(2S,3S)-methyl 3-(3,4-dichlorophenyl)-8-methyl-8-aza-bicyclo[3.2.1]octane-2-carboxylate], the inhibition constant Ki is 0.0031 µM in test [1], 0.00079 µM in test [2] and 0.0179 µM in test [3].

With `COC(=O)C1C2CC[C@H](C[C@@H]1c1ccc(N)cc1)N2C` (stereo partly drawn) [(3S,8R)-3-(4-Amino-phenyl)-8-methyl-8-aza-bicyclo[3.2.1]octane-2-carboxylic acid methyl ester], the Ki amounted to 5.11 µM in test [1], 0.0098 µM in test [2] and 0.151 µM in test [3].

On to `CN1[C@H]2CC[C@@H]1[C@@H](C(=O)O)[C@@H](c1ccc(Cl)cc1)C2` [RIT-70], for which the figures for the inhibition constant (Ki) in test [1], in test [2] and in test [3] were > 10 µM, 2.07 µM and > 10 µM, respectively.

Take `COC(=O)[C@H]1[C@@H](c2ccc(Cl)cc2)C[C@@H]2CC[C@H]1N2C` [RTI-31]: the figures for the inhibitory constant (Ki) in test [1] and in test [2] were 0.0445 µM and 0.00112 µM, respectively.

Consider `COC(=O)C1C2CC[C@H](C[C@@H]1c1ccc(C)cc1)N2C` (stereo partly specified) [RTI-32], for which the Ki worked out at 0.0017 µM in test [2] and 0.06 µM in test [3].

Consider `COC(=O)[C@H]1[C@@H](c2ccc(Br)cc2)C[C@@H]2CC[C@H]1N2C` [RTI-51], for which the inhibitory constant (Ki) was 0.0106 µM in test [1] and 0.00169 µM in test [2].

For `COC(=O)[C@H]1[C@@H](c2ccc(Cl)cc2)C[C@@H]2CC[C@H]1N2` [RTI-110], the Ki in test [1] was 0.0041 µM; in test [2], 0.00062 µM; in test [3] it was 0.00545 µM.

As to `CN1[C@H]2CC[C@@H]1[C@@H](C(=O)Oc1ccccc1)[C@@H](c1ccc(Cl)cc1)C2` [RTI-113], the inhibition constant Ki in test [1] amounted to 2.34 µM; in test [2] it was 0.00198 µM; in test [3] it was 2.93 µM.

For the compound `Cc1ccc([C@H]2C[C@@H]3CC[C@H]([C@H]2C(=O)Oc2ccccc2)N3C)cc1` [RTI-120], the values for the Ki in test [1], in test [2] and in test [3] were > 10 µM, 0.00326 µM and 5.83 µM, respectively.

As to `CN1C2CC[C@@H]1C[C@H](c1ccc(Cl)cc1)C2C(=O)N1CCCC1` (stereo partly specified) [RTI-147], the Ki in test [1] was > 10 µM; in test [2], 0.00138 µM; in test [3] it was 3.95 µM.

As to `CN1[C@H]2CC[C@@H]1[C@@H](C(=O)N1CCCC1)[C@@H](c1ccc(I)cc1)C2` [RTI-229], the results for the Ki in test [1], in test [2] and in test [3] were 1.73 µM, 0.00037 µM and 0.99 µM, respectively.

In the case of `COC(=O)[C@H]1[C@@H](c2ccccc2)C[C@@H]2CC[C@H]1N2C` [methyl (1R,2S,3S,5S)-8-methyl-3-phenyl-8-azabicyclo[3.2.1]octane-2-carboxylate], the inhibitory constant (Ki) in test [2] turned out to be 0.023 µM; in test [3], 0.92 µM.

For the origin of these results see BindingDB's records for PubMed 10336510 (Virginia Commonwealth University, 1999).
